According to the CheMixHub viscosity set:

Test: xn = mol fraction of the nth substance listed

CC#N + CC(C)O
Conditions | viscosity [mPa·s]
293.15 K, 101.32 kPa, x1 = 0.0526 | 1.921
293.15 K, 101.32 kPa, x1 = 0.0771 | 1.736
293.15 K, 101.32 kPa, x1 = 0.1018 | 1.572
293.15 K, 101.32 kPa, x1 = 0.2227 | 1.15
293.15 K, 101.32 kPa, x1 = 0.3314 | 0.8622
293.15 K, 101.32 kPa, x1 = 0.3989 | 0.7354
293.15 K, 101.32 kPa, x1 = 0.55 | 0.5657
293.15 K, 101.32 kPa, x1 = 0.625 | 0.502
293.15 K, 101.32 kPa, x1 = 0.6893 | 0.4639
293.15 K, 101.32 kPa, x1 = 0.7624 | 0.4194
293.15 K, 101.32 kPa, x1 = 0.864 | 0.3823
298.15 K, 101 kPa, x1 = 0.1056 | 1.372
298.15 K, 101 kPa, x1 = 0.1688 | 1.145
298.15 K, 101 kPa, x1 = 0.2531 | 0.923
298.15 K, 101 kPa, x1 = 0.4135 | 0.653
298.15 K, 101 kPa, x1 = 0.5014 | 0.556
298.15 K, 101 kPa, x1 = 0.6077 | 0.473
298.15 K, 101 kPa, x1 = 0.7093 | 0.424
298.15 K, 101 kPa, x1 = 0.8276 | 0.373
298.15 K, 101 kPa, x1 = 0.9013 | 0.356
298.15 K, 101.3 kPa, x1 = 0.1399 | 1.254
298.15 K, 101.3 kPa, x1 = 0.2679 | 0.846
298.15 K, 101.3 kPa, x1 = 0.3855 | 0.66
298.15 K, 101.3 kPa, x1 = 0.4939 | 0.541
298.15 K, 101.3 kPa, x1 = 0.5942 | 0.482
298.15 K, 101.3 kPa, x1 = 0.6871 | 0.419
298.15 K, 101.3 kPa, x1 = 0.7736 | 0.372
298.15 K, 101.3 kPa, x1 = 0.8541 | 0.343
298.15 K, 101.3 kPa, x1 = 0.9295 | 0.342
303.15 K, 101 kPa, x1 = 0.1056 | 1.088
303.15 K, 101 kPa, x1 = 0.1688 | 0.918
303.15 K, 101 kPa, x1 = 0.2531 | 0.762
303.15 K, 101 kPa, x1 = 0.4135 | 0.551
303.15 K, 101 kPa, x1 = 0.5014 | 0.482
303.15 K, 101 kPa, x1 = 0.6077 | 0.417
303.15 K, 101 kPa, x1 = 0.7093 | 0.382
303.15 K, 101 kPa, x1 = 0.8276 | 0.341
303.15 K, 101 kPa, x1 = 0.9013 | 0.327
303.15 K, 101.3 kPa, x1 = 0.1399 | 1.114
303.15 K, 101.3 kPa, x1 = 0.2679 | 0.758
303.15 K, 101.3 kPa, x1 = 0.3855 | 0.599
303.15 K, 101.3 kPa, x1 = 0.4939 | 0.502
303.15 K, 101.3 kPa, x1 = 0.5942 | 0.45
303.15 K, 101.3 kPa, x1 = 0.6871 | 0.394
303.15 K, 101.3 kPa, x1 = 0.7736 | 0.356
303.15 K, 101.3 kPa, x1 = 0.8541 | 0.327
303.15 K, 101.3 kPa, x1 = 0.9295 | 0.326
303.15 K, 101.32 kPa, x1 = 0.0526 | 1.464
303.15 K, 101.32 kPa, x1 = 0.0771 | 1.361
303.15 K, 101.32 kPa, x1 = 0.1018 | 1.239
303.15 K, 101.32 kPa, x1 = 0.2227 | 0.9168
303.15 K, 101.32 kPa, x1 = 0.3314 | 0.7097
303.15 K, 101.32 kPa, x1 = 0.3989 | 0.6154
303.15 K, 101.32 kPa, x1 = 0.55 | 0.4831
303.15 K, 101.32 kPa, x1 = 0.625 | 0.4366
303.15 K, 101.32 kPa, x1 = 0.6893 | 0.407
303.15 K, 101.32 kPa, x1 = 0.7624 | 0.378
303.15 K, 101.32 kPa, x1 = 0.864 | 0.344
308.15 K, 101 kPa, x1 = 0.1056 | 0.871
308.15 K, 101 kPa, x1 = 0.1688 | 0.739
308.15 K, 101 kPa, x1 = 0.2531 | 0.635
308.15 K, 101 kPa, x1 = 0.4135 | 0.475
308.15 K, 101 kPa, x1 = 0.5014 | 0.42
308.15 K, 101 kPa, x1 = 0.6077 | 0.372
308.15 K, 101 kPa, x1 = 0.7093 | 0.345
308.15 K, 101 kPa, x1 = 0.8276 | 0.312
308.15 K, 101 kPa, x1 = 0.9013 | 0.302
308.15 K, 101.3 kPa, x1 = 0.1399 | 0.995
308.15 K, 101.3 kPa, x1 = 0.2679 | 0.687
308.15 K, 101.3 kPa, x1 = 0.3855 | 0.546
308.15 K, 101.3 kPa, x1 = 0.4939 | 0.465
308.15 K, 101.3 kPa, x1 = 0.5942 | 0.417
308.15 K, 101.3 kPa, x1 = 0.6871 | 0.37
308.15 K, 101.3 kPa, x1 = 0.7736 | 0.331
308.15 K, 101.3 kPa, x1 = 0.8541 | 0.311
308.15 K, 101.3 kPa, x1 = 0.9295 | 0.309
313.15 K, 101.3 kPa, x1 = 0.1399 | 0.889
313.15 K, 101.3 kPa, x1 = 0.2679 | 0.623
313.15 K, 101.32 kPa, x1 = 0.0526 | 1.125
313.15 K, 101.32 kPa, x1 = 0.0771 | 1.047
313.15 K, 101.32 kPa, x1 = 0.1018 | 0.991
313.15 K, 101.32 kPa, x1 = 0.2227 | 0.7301
313.15 K, 101.32 kPa, x1 = 0.3314 | 0.5949
313.15 K, 101.32 kPa, x1 = 0.3989 | 0.5253
313.15 K, 101.32 kPa, x1 = 0.55 | 0.4201
313.15 K, 101.32 kPa, x1 = 0.625 | 0.3817
313.15 K, 101.32 kPa, x1 = 0.6893 | 0.361
313.15 K, 101.32 kPa, x1 = 0.7624 | 0.3321
313.15 K, 101.32 kPa, x1 = 0.864 | 0.3081
323.15 K, 101 kPa, x2 = 0.0989 | 0.289
323.15 K, 101 kPa, x2 = 0.1994 | 0.312
323.15 K, 101 kPa, x2 = 0.2943 | 0.34
323.15 K, 101 kPa, x2 = 0.3965 | 0.378
323.15 K, 101 kPa, x2 = 0.4864 | 0.427
323.15 K, 101 kPa, x2 = 0.6077 | 0.499
323.15 K, 101 kPa, x2 = 0.7049 | 0.58
323.15 K, 101 kPa, x2 = 0.8007 | 0.685
323.15 K, 101 kPa, x2 = 0.8971 | 0.815
323.15 K, 101.32 kPa, x1 = 0.0526 | 0.9024
323.15 K, 101.32 kPa, x1 = 0.0771 | 0.8427
323.15 K, 101.32 kPa, x1 = 0.1018 | 0.7839
323.15 K, 101.32 kPa, x1 = 0.2227 | 0.6091
323.15 K, 101.32 kPa, x1 = 0.3314 | 0.5031
323.15 K, 101.32 kPa, x1 = 0.3989 | 0.4466
323.15 K, 101.32 kPa, x1 = 0.55 | 0.3731
323.15 K, 101.32 kPa, x1 = 0.625 | 0.3434
323.15 K, 101.32 kPa, x1 = 0.6893 | 0.329
323.15 K, 101.32 kPa, x1 = 0.7624 | 0.3054
323.15 K, 101.32 kPa, x1 = 0.864 | 0.2835
